Among the data in patent US12599582B2, “Pyrrole compounds” (ALIGOS THERAPEUTICS, INC., priority 2019, dated 2026) are EC50 values, retold here.

This assay has as its system HBV. Nature of the assay: HBV-DNA Antiviral Assay Using HepG2.2.15 Cells (extracellular HBV DNA by qPCR). Format: cell-based, hepatitis B virus (HBV). The settings on record: Hepatitis B virus; HBV DNA inhibition, HepG2.2.15 cells, extracellular HBV DNA by qPCR; read-out: EC50. The protocol: The following assay procedure describes the HBV antiviral assay. This assay uses HepG2.2.15 cells, which have been transfected with HBV genome, and extracellular HBV DNA quantification as endpoint. Cell viability is assessed in parallel by measuring the intracellular ATP content using the CellTiter-Glo® reagent from Promega.
On day 0, HepG2.2.15 cells were seeded in 96-well plates at a density of 6.0×10^4 cells/well (0.1 mL/well). The cells were incubated at 37° C. and 5% CO2.
On day 1, the test articles were diluted and added to cell culture wells (8 concentrations, 4-fold dilution, in duplicate). GLS4, Tenofovir and Sorafenib were used as reference compounds. 100 μL of culture medium containing the compounds was added to the plate, and the final total volume per well was 200 μL. The final concentration of DMSO in the culture medium was 0.5%. The plate map of compound treatment is shown below. The cells were cultured at 37° C. and 5% CO2 for 3 days.
On day 4, the plates were refreshed with culture media with compounds.
On day 7, cell viability was assessed using the CellTiter-Glo®, and the cell culture supernatants were collected for determination of HBV DNA by qPCR.
Extracellular DNA was isolated with QIAamp 96 DNA Blood Kit per the manufacturer's manual. HBV DNA was then quantified by qPCR with HBV specific primers and probes as specified in Table 1 using the FastStart Universal MasterMix from Roche on an ABI-7900HT. The PCR cycle program consisted of 95° C. for 10 min, followed by 40 cycles at 95° C. for 15 sec and 60° C. for 1 min.
A DNA standard was prepared by dilution of the pAAV2 HBV1.3 plasmid with concentrations ranging from 10 to 1×10^7 copies/uL and used to generate a standard curve by plotting Ct value vs. the concentration of the HBV plasmid DNA standard. The quantity of HBV DNA in each sample was determined by interpolating from the standard curve.
Cell viability was calculated as follows: % Cell viability=(luminescence value of test sample−average luminescence value of blank)/(average luminescence value of 0.5% DMSO control−average luminescence of blank)×100%. HBV DNA inhibition was calculated as follows: 100−(HBV DNA copy number of test sample−HBV DNA copy number of ETV)/HBV DNA copy number of 0.5% DMSO control−HBV DNA copy number of ETV)×100%. The CC50, EC50 and EC90 values were determined by dose-response curves fitted by GraphPad Prism using “log (agonist) vs. response—Variable slope”.
In general terms: In qPCR the cycle at which signal appears reflects the starting amount.
A word on the EC50: it is the concentration giving half of the maximal effect. With `Cc1c(C(=O)C(=O)NC(C)(C)c2cncnc2)c(C)n(C)c1C(=O)Nc1ccc(F)c(C(F)(F)F)c1` [Compound 148, N-[4-fluoro-3-(trifluoromethyl)phenyl]-1,3,5-trimethyl-4-[2-[(1-methyl-1-pyrimidin-5-yl-ethyl)amino]-2-oxo-acetyl]pyrrole-2-carboxamide], the EC50 is 1 to 10 nM.

Consider `C=C[C@@](C)(CO)NC(=O)C(=O)c1c(C)c(C(=O)Nc2ccc(F)c(C(F)(F)F)c2)n(C)c1C` [Compound 69b, N-[4-fluoro-3-(trifluoromethyl)phenyl]-1,3,5-trimethyl-4-[2-oxo-2-[[(1S)-1-(hydroxymethyl)-1-methyl-allyl]amino]acetyl]pyrrole-2-carboxamide], for which the EC50 lay in the range of 1 to 10 nM.

In the case of `C#C[C@](C)(NC(=O)C(=O)c1c(C)c(C(=O)Nc2ccc(F)c(C#N)c2)n(C)c1C)C(F)(F)F` [Compound 79b, N-(3-cyano-4-fluoro-phenyl)-1,3,5-trimethyl-4-[2-oxo-2-[[(1S)-1-methyl-1-(trifluoromethyl)prop-2-ynyl]amino]acetyl]pyrrole-2-carboxamide], the EC50 is 1 to 10 nM.

As for `C=C[C@@H](NC(=O)C(=O)c1c(C)c(C(=O)Nc2ccc(F)c(C#N)c2)n(C)c1C)C(F)(F)F` [Compound 36b, N-(3-cyano-4-fluoro-phenyl)-1,3,5-trimethyl-4-[2-oxo-2-[[(1R)-1-(trifluoromethyl)allyl]amino]acetyl]pyrrole-2-carboxamide], the EC50 was below 1 nM.

Take `Cc1c(C(=O)C(=O)NC(C)(C)c2ccccn2)c(C)n(C)c1C(=O)Nc1ccc(F)c(C#N)c1` [Compound 91, N-(3-cyano-4-fluoro-phenyl)-1,3,5-trimethyl-4-[2-[[1-methyl-1-(2-pyridyl)ethyl]amino]-2-oxo-acetyl]pyrrole-2-carboxamide]: the EC50 lay in the range of 1 to 10 nM.

For `C#CCNC(=O)C(=O)c1cc(C(=O)Nc2ccc(F)c(C#N)c2)n(C)c1C` [Compound 27, N-(3-cyano-4-fluoro-phenyl)-1,5-dimethyl-4-[2-oxo-2-(prop-2-ynylamino)acetyl]pyrrole-2-carboxamide], the concentration giving a half-maximal response (EC50) was 10 to 100 nM.

For the molecule `C#C[C@@](CO)(NC(=O)C(=O)c1c(C)c(C(=O)Nc2ccc(F)c(C(F)(F)F)c2)n(C)c1C)C(F)(F)F` [Compound 75b, N-[4-fluoro-3-(trifluoromethyl)phenyl]-1,3,5-trimethyl-4-[2-oxo-2-[[(1S)-1-(hydroxymethyl)-1-(trifluoromethyl)prop-2-ynyl]amino]acetyl]pyrrole-2-carboxamide], the EC50 is 10 to 100 nM.

In the case of `Cc1c(C(=O)C(=O)NC2(C#CC3(O)CC3)COC2)c(C)n(C)c1C(=O)Nc1ccc(F)c(C#N)c1` [Compound 102, N-(3-cyano-4-fluoro-phenyl)-4-[2-[[3-[2-(1-hydroxycyclopropyl)ethynyl]oxetan-3-yl]amino]-2-oxo-acetyl]-1,3,5-trimethyl-pyrrole-2-carboxamide], the EC50 lay in the range of 1 to 10 nM.

As for `C=C[C@@](C)(NC(=O)C(=O)c1c(C)c(C(=O)Nc2ccc(F)c(C#N)c2)n(C)c1C)C(F)(F)F` [Compound 95a, N-(3-cyano-4-fluoro-phenyl)-1,3,5-trimethyl-4-[2-oxo-2-[[(1R)-1-methyl-1-(trifluoromethyl)allyl]amino]acetyl]pyrrole-2-carboxamide], the EC50 lay in the range of 1 to 10 nM.

Turning to `C#CC1(NC(=O)C(=O)c2c(F)c(C(=O)Nc3ccc(F)c(C#N)c3)n(C)c2C)COC1` [Compound 55, N-(3-cyano-4-fluoro-phenyl)-4-[2-[(3-ethynyloxetan-3-yl)amino]-2-oxo-acetyl]-3-fluoro-1,5-dimethyl-pyrrole-2-carboxamide], the EC50 was below 1 nM.

On to `C=C[C@](C)(CO)NC(=O)C(=O)c1c(C)c(C(=O)Nc2ccc(F)c(C(F)(F)F)c2)n(C)c1C` [Compound 69a, N-[4-fluoro-3-(trifluoromethyl)phenyl]-1,3,5-trimethyl-4-[2-oxo-2-[[(1R)-1-(hydroxymethyl)-1-methyl-allyl]amino]acetyl]pyrrole-2-carboxamide], for which the concentration for a half-maximal effect (EC50) was 1 to 10 nM.

Consider `C#CCNC(=O)C(=O)c1c(Cl)c(C(=O)Nc2ccc(F)c(C#N)c2)n(C)c1C` [Compound 21, 3-chloro-N-(3-cyano-4-fluoro-phenyl)-1,5-dimethyl-4-[2-oxo-2-(prop-2-ynylamino)acetyl]pyrrole-2-carboxamide], for which the EC50 lay in the range of 1 to 10 nM.

For the molecule `C#C[C@@H](NC(=O)C(=O)c1c(C)c(C(=O)Nc2ccc(F)c(C(F)(F)F)c2)n(C)c1C)C1CC1` [Compound 38b, N-[4-fluoro-3-(trifluoromethyl)phenyl]-1,3,5-trimethyl-4-[2-oxo-2-[[(1S)-1-cyclopropylprop-2-ynyl]amino]acetyl]pyrrole-2-carboxamide], the concentration for a half-maximal effect (EC50) was below 1 nM.

As to `Cc1c(C(=O)C(=O)NCC#CC2CC2)c(C)n(C)c1C(=O)Nc1ccc(F)c(C#N)c1` [Compound 22, N-(3-cyano-4-fluoro-phenyl)-4-[2-(3-cyclopropylprop-2-ynylamino)-2-oxo-acetyl]-1,3,5-trimethyl-pyrrole-2-carboxamide], the EC50 lay in the range of 1 to 10 nM.

On to `C#CC1(NC(=O)C(=O)c2c(C)c(C(=O)Nc3ccc(F)c(C(F)F)c3)n(C)c2C)CC(F)(F)C1` [Compound 82, N-[3-(difluoromethyl)-4-fluoro-phenyl]-4-[2-[(1-ethynyl-3,3-difluoro-cyclobutyl)amino]-2-oxo-acetyl]-1,3,5-trimethyl-pyrrole-2-carboxamide], for which the EC50 lay within 1 to 10 nM.

Regarding `Cc1c(C(=O)C(=O)NC(C)(C)c2ccncn2)c(C)n(C)c1C(=O)Nc1ccc(F)c(C(F)(F)F)c1` [Compound 153, N-[4-fluoro-3-(trifluoromethyl)phenyl]-1,3,5-trimethyl-4-[2-[(1-methyl-1-pyrimidin-4-yl-ethyl)amino]-2-oxo-acetyl]pyrrole-2-carboxamide], the EC50 is below 1 nM.

`C#CC1(NC(=O)C(=O)c2c(C)c(C(=O)Nc3ccc(F)c(C(F)(F)F)c3)n(C)c2C)CC(O)C1` (stereo not drawn) [Compound 49, 4-[2-[(1-ethynyl-3-hydroxy-cyclobutyl)amino]-2-oxo-acetyl]-N-[4-fluoro-3-(trifluoromethyl)phenyl]-1,3,5-trimethyl-pyrrole-2-carboxamide]: the concentration giving a half-maximal response (EC50) is below 1 nM.

Take `C#CCNC(=O)C(=O)c1cn(C)c(C(=O)Nc2ccc(F)c(C#N)c2)c1Cl` [Compound 10, 3-chloro-N-(3-cyano-4-fluoro-phenyl)-1-methyl-4-[2-oxo-2-(prop-2-ynylamino)acetyl]pyrrole-2-carboxamide]: the EC50 lay in the range of 10 to 100 nM.

Take `Cc1c(C(=O)C(=O)NC2(C#CC(F)(F)F)CC(O)C2)c(C)n(C)c1C(=O)Nc1ccc(F)c(C#N)c1` (stereo not drawn) [Compound 62, N-(3-cyano-4-fluoro-phenyl)-4-[2-[[3-hydroxy-1-(3,3,3-trifluoroprop-1-ynyl)cyclobutyl]amino]-2-oxo-acetyl]-1,3,5-trimethyl-pyrrole-2-carboxamide]: the EC50 was 100 to 1000 nM.

Turning to `C#C[C@@](CO)(NC(=O)C(=O)c1c(C)c(C(=O)Nc2ccc(F)c(C#N)c2)n(C)c1C)C(F)(F)F` [Compound 71b, N-(3-cyano-4-fluoro-phenyl)-1,3,5-trimethyl-4-[2-oxo-2-[[(1S)-1-(hydroxymethyl)-1-(trifluoromethyl)prop-2-ynyl]amino]acetyl]pyrrole-2-carboxamide], the EC50 lay within 1 to 10 nM.

Consider `C=C[C@](C)(CO)NC(=O)C(=O)c1c(C)c(C(=O)Nc2ccc(F)c(C#N)c2)n(C)c1C` [Compound 72a, N-(3-cyano-4-fluoro-phenyl)-1,3,5-trimethyl-4-[2-oxo-2-[[(1R)-1-(hydroxymethyl)-1-methyl-allyl]amino]acetyl]pyrrole-2-carboxamide], for which the concentration for a half-maximal effect (EC50) was 1 to 10 nM.

In the case of `C#C[C@@H](NC(=O)C(=O)c1c(C)c(C(=O)Nc2ccc(F)c(C#N)c2)n(C)c1C)C(C)(C)C` [Compound 30b, N-(3-cyano-4-fluoro-phenyl)-1,3,5-trimethyl-4-[2-oxo-2-[[(1S)-1-tert-butylprop-2-ynyl]amino]acetyl]pyrrole-2-carboxamide], the EC50 is below 1 nM.

As to `CC#CC1(NC(=O)C(=O)c2c(C)c(C(=O)Nc3ccc(F)c(C#N)c3)n(C)c2C)COC1` [Compound 50, N-(3-cyano-4-fluoro-phenyl)-1,3,5-trimethyl-4-[2-oxo-2-[(3-prop-1-ynyloxetan-3-yl)amino]acetyl]pyrrole-2-carboxamide], the EC50 was below 1 nM.

With `C=CC1(NC(=O)C(=O)c2c(C)c(C(=O)Nc3ccc(F)c(C#N)c3)n(C)c2C)COC1` [Compound 33, N-(3-cyano-4-fluoro-phenyl)-1,3,5-trimethyl-4-[2-oxo-2-[(3-vinyloxetan-3-yl)amino]acetyl]pyrrole-2-carboxamide], the EC50 fell in the range of 1 to 10 nM.
